Values of other authors, collected in patent US20210353710A1, “GLP-1R AGONIST AND METHODS OF TREATMENT” (The Johns Hopkins University, priority 2020, published 2021).

Conditions: given twice a day for one month

For Exendin-4, the “effect on blood glucose in humans” value is given as “hypoglycemic effect”.
